# Experimental data taken from EP0942911B1, “BENZOPYRANOPYRROLE AND BENZOPYRANOPYRIDINE ALPHA-1 ADRENERGIC COMPOUNDS” (Abbott Laboratories, priority 1996, dated 1998).
# Structures can show the parent of a compound that is named as a salt.
# Experiments:
# [1] = system: α-1A adrenoreceptor; assay: Functional antagonism: inhibition of PE-induced contraction of canine prostate strips (Schild plot); type: cell-based; details: phenylephrine-induced contraction
# From the text: Canine prostate strips were used in vitro as previously described (Hieble, J.P., Boyce, A.J. and Caine, M., Fed. Proc., 45: 2609-2614 (1986)), to determine antagonist potencies against phenylephrine-induced contractions.
# (§1) Functional assays indicative of pharmacologically defined α-1 adrenoreceptors were used to further characterize compounds. Inhibition of phenylephrine (PE)-induced contraction of canine prostate smooth muscle can be correlated with α-1A adrenoreceptor activation. […] For each of these models, agonist dose response curves were repeated against increasing concentrations of test agent to derive a Schild plot [log ([…]) against log (molarity of test agent)] to determine the pA2.
# [2] = system: α-1 Adrenoceptors; assay: Functional antagonism in rat aorta (method not described); type: cell-based
# [3] = biological target: T1, α-1d adrenoreceptor (Rattus norvegicus, UniProt P23944); assay: biochemical; type: binding; details: [3H]-prazosin radioligand; cloned receptor in LTK cell membranes; read-out: Radioligand Binding (Ki, nM) 1d (Rat)
# T1 sequence (P23944 1-561): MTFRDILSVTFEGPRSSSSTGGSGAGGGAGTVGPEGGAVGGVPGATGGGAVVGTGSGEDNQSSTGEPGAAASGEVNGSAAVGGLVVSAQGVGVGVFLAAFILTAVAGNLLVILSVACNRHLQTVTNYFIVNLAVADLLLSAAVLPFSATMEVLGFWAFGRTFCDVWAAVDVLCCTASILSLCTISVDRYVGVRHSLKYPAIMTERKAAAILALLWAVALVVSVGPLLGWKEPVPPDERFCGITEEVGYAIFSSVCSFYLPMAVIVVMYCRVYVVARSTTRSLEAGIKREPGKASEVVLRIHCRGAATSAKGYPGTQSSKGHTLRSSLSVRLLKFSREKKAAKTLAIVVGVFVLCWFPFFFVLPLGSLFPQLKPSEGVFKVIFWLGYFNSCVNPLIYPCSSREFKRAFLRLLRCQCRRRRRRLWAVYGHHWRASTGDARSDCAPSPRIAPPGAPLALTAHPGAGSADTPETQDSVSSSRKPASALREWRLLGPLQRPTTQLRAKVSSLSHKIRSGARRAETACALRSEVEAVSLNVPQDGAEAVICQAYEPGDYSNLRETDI
# Method in brief: (§2)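 Stable LTK fibroblast lines carrying the bovine, hamster or rat α-1 subtype genes supply membranes, homogenized in Tris-HCl/EDTA at pH 7.4. A separate rat submaxillary gland preparation covers α-1A. Bound radioligand is quantified by liquid scintillation.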
# [4] = biological target: T2, α-1b adrenoreceptor (Mesocricetus auratus, UniProt P18841); assay: biochemical; type: binding, hamster; details: [3H]-prazosin radioligand; cloned receptor in LTK cell membranes; read-out: Radioligand Binding (Ki, nM) 1b (Hamster)
# T2 sequence (P18841 1-515): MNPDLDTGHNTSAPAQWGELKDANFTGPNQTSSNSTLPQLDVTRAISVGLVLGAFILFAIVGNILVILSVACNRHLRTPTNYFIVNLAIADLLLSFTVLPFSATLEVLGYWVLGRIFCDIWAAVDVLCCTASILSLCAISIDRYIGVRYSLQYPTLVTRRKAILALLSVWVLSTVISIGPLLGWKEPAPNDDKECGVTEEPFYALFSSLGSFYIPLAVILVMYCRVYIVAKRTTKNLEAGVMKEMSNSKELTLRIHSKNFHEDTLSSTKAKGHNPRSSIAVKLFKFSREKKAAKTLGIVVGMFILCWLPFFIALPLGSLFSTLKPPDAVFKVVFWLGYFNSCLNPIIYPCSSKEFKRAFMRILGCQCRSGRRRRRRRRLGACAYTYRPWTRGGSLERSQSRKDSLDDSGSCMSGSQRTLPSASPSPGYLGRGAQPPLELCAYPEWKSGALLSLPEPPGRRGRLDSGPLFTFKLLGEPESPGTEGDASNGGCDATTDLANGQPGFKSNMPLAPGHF
# Method in brief: as §2
# [5] = biological target: T3, α-1A adrenoreceptor (rat submaxillary gland) (Rattus norvegicus, UniProt P43140); assay: biochemical; type: binding; details: [3H]-prazosin radioligand; rat submaxillary gland membranes; read-out: Radioligand Binding (Ki, nM) 1A (Rat)
# T3 sequence (P43140 1-466): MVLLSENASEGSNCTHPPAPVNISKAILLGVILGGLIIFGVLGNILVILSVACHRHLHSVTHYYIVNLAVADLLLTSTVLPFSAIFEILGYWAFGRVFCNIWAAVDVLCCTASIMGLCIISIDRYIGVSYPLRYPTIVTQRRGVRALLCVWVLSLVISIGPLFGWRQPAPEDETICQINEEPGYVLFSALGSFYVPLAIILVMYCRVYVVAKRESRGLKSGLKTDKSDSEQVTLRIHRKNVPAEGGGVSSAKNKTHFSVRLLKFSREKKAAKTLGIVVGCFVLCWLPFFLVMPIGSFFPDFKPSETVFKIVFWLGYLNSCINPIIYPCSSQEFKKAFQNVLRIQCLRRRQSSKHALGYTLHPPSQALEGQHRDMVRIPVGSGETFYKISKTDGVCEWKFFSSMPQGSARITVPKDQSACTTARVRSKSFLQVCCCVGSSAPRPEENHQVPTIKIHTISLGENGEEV
# Method in brief: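 Membranes were prepared from rat submaxillary glands as the α-1A adrenoreceptor source. Competition binding followed Greengrass and Bremner, with bound radioligand measured by scintillation counting.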
# [6] = biological target: T4, α-1a adrenoreceptor (Bos taurus, UniProt P18130); assay: biochemical; type: binding, bovine; details: [3H]-prazosin radioligand; cloned receptor in LTK cell membranes; read-out: Radioligand Binding (Ki, nM) 1a (Bovine)
# T4 sequence (P18130 1-466): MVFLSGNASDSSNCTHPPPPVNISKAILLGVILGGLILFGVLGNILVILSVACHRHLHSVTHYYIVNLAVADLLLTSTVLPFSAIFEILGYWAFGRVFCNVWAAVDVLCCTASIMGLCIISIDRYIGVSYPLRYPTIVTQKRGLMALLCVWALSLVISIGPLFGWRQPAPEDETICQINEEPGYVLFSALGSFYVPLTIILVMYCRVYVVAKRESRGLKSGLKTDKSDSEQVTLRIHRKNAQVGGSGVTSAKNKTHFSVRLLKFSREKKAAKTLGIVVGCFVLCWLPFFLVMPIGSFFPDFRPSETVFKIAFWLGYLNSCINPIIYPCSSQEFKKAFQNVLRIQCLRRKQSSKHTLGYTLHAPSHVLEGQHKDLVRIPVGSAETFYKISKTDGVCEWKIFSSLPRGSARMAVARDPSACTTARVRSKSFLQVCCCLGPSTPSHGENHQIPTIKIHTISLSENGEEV
# Method in brief: as §2
# [7] = biological target: T5, α-1B adrenoreceptor (Rattus norvegicus, UniProt P15823); assay: cell-based; details: phenylephrine-induced contraction; Schild plot
# T5 construct: from tissue; host or cells: rat spleen
# T5 sequence (P15823 1-515): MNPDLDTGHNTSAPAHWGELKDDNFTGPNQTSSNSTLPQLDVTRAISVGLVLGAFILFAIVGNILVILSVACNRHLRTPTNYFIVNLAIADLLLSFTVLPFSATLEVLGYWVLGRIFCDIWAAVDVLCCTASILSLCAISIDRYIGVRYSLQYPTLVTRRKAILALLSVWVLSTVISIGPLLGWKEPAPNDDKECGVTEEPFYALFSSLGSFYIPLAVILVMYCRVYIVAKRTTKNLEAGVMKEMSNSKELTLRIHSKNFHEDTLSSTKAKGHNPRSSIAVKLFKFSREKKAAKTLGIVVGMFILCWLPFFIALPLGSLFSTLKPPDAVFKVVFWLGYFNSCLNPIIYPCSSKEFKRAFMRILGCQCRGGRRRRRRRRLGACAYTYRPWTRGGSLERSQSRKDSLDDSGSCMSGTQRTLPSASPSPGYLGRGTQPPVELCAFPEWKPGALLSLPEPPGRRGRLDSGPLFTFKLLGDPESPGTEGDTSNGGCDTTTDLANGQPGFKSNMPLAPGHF
# From the text: as §1
In Vitro Characterization (pA2) Rat Spleen [7],SMILES,In Vitro Characterization (pA2) Dog Prostate [1],In Vitro Characterization (pA2) Rat Aorta [2],Ki [3],Ki [4],Ki [5],Ki [6]
,"COc1cccc2c1[C@@H]1CCN(CCCCn3c(=O)[nH]c4c(sc5cccnc54)c3=O)C[C@H]1CO2 (racemic) [Example 88, 3-[4-((±)-trans-10-Methoxy-1,3,4,4a,5,10b-hexahydro-2H-[1]-benzopyrano[3,4-c]pyrido-3-yl)butyl]-pyrido[2',3':4,5]thieno[3,2-d]pyrimidine-2,4(1H,3H)-dione hydrochloride]",8.09,,,,,
,"COc1cccc2c1[C@@H]1CN(CCCCn3c(=O)[nH]c4c(sc5nc(Cl)ccc54)c3=O)C[C@@H]1CO2 [Example 32, 3-[4-((3aR,9bR)-cis-9-Methoxy-1,2,3,3a,4,9b-hexahydro-[1]-benzopyrano[3,4-c]pyrrol-2-yl)butyl]-7-chloro-pyrido[3',2':4,5]thieno[3,2-d]pyrimidine-2,4(1H,3H)-dione hydrochloride]",,9.31,0.86 nM,,,
,"COc1ccc(O)c2c1[C@@H]1CN(CCCCn3c(=O)[nH]c4c(sc5ncc(-c6ccccc6)nc54)c3=O)C[C@@H]1CO2 [Example 105, 3-[4-((3aR,9bR)-cis-6-Hydroxy-9-methoxy-1,2,3,3a,4,9b-hexahydro-[1]-benzopyrano[3,4-c]pyrrol-2-yl)butyl]-8-phenyl-pyrazino[2',3':4,5]thieno[3,2-d]pyrimidine-2,4(1H,3H)-dione]",,,55.9 nM,1620 nM,26.3 nM,6.42 nM
8.60,"COc1cc2nc(N3CCN(C(=O)C4CCCO4)CC3)nc(N)c2cc1OC (centres unmarked) [Terazosin, terazosin, reference compound]",,8.65,0.689 nM,,,3.31 nM
